For 3 molecules, Activity and IC50 results are on record in ChEMBL document CHEMBL1141430, “Alkaloids with human delta-opioid receptor binding affinity from the Australian rainforest tree Peripentadenia mearsii” (J Nat Prod, 2007).

For assay [1], the target named is T1, Delta-type opioid receptor (Homo sapiens, UniProt P41143). The experiment in a line: Displacement of [125I]deltorphin 2 from human recombinant delta opioid receptor expressed in HEK cells at 100 uM. It is filed as cell-based. To be noted: HEK293. For orientation: In a radioligand displacement assay an active substance lowers the binding of a labelled ligand.

Assay [2] deals with T1, Delta-type opioid receptor. The experiment in a line: biochemical.

Calls of active or inactive are those of the source. No cut-off for these calls is given here.

T1 sequence (P41143 whole entry): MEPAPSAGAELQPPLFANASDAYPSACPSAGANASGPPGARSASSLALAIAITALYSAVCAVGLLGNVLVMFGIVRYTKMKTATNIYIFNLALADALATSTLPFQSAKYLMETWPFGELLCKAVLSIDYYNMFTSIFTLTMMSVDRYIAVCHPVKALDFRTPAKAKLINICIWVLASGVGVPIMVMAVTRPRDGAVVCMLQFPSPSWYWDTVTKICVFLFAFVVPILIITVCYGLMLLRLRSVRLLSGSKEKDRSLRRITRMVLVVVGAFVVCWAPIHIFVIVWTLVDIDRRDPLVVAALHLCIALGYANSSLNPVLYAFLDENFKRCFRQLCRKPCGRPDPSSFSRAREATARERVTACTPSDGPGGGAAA

With `CCCCCC(=O)NCCC[N+]12CCC[C@@H]1CC1=C(C(=O)CC(C)O1)[C@H]2C` (stereo partly drawn), the outcome in assay [1] was inactive. In general, IC50 refers to the concentration at which inhibition is half-maximal. `CCCCCC(=O)NCCCN1CCCC1CC(=O)c1c(C)cccc1O` (stereo not drawn) [PERIPENTADENINE] came in with an IC50 in assay [2] of 11.4 µM. This lies in the double-digit micromolar range.

In assay [2], `CCCCCC(=O)NCCCN1CCC[C@H]1CC(=O)O` [PERIPENTONINE C] showed an IC50 of 30.9 µM.
